Read-outs that look alike come from different tables or passages of the source.
Experiments:
[1] = Cytotoxicity (CC50) in macrophages; assay type: cell-based; conditions: mouse
Excerpt: Table 3 Inhibitory effect of 9, 22, 23 and 25 on LSP-induced NO production in macrophages | column: CC50^c (µM)

[2] = tested on: NO production in LPS-activated RAW 264.7 cells; assay: Nitric oxide production assay in LPS-activated RAW 264.7 cells; assay type: cell-based; conditions: Mus musculus, read-out: IC50 (50% inhibitory concentration), LPS-induced NO production
[3] = tested on: nucleoprotein expression in influenza virus-infected MDCK cells; assay type: cell-based, influenza A virus; conditions: 20 at 50 μM, 2, 5 and 8 h
[4] = tested on: A/WSN/33/2009 (H1N1) virus in MDCK cells; assay type: cell-based, influenza A virus; conditions: 20 at 50 μM, versus DMSO group
[5] = target: hemagglutinin (HA) of influenza A/WSN/33/2009 (H1N1) (Influenza A virus, UniProt P03454); conditions: chicken RBCs without virus
[6] = tested on: A/WSN/33/2009 (H1N1) virus; assay: microbe, parasite or virus in culture; assay type: cell-based; conditions: Influenza A virus, MDCK, 48 h; read-out: IC50 against A/WSN/33/2009 (H1N1) virus
[7] = RAW264.7, LPS (1 μg/ml) activated RAW 264.7 cells, 24 h
[8] = macrophages, read-out: CC50 (50% cytotoxic concentration)

Chain of hemagglutinin (HA) of influenza A/WSN/33/2009 (H1N1) (P03454 18-342 limits assumed): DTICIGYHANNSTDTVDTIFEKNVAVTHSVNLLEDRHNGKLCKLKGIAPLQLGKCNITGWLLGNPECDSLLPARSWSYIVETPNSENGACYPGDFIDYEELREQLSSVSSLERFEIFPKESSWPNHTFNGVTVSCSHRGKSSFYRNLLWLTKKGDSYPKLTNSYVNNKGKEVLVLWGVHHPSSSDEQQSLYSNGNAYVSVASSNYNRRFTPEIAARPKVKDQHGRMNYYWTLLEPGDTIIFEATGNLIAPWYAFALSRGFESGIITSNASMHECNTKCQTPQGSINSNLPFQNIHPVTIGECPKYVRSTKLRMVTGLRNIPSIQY
Chain of hemagglutinin (HA) of influenza A/WSN/33/2009 (H1N1) (P03454 344-565 partner limits assumed): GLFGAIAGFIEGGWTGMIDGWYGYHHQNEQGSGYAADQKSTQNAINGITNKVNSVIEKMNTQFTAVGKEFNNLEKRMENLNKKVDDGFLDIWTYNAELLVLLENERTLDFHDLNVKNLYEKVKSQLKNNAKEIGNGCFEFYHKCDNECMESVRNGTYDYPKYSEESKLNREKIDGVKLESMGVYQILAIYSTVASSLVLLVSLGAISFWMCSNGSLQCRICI

| SMILES | IC50 [2, 7] [µM] | CC50 [1, 8] [µM] | also measured |
| --- | --- | --- | --- |
| O=c1cc(-c2ccc(O)c(O)c2)oc2cc(O)cc(O)c12 [Compound 9, luteolin] | 22.8 |  | CC50 [1]: > 50 µM |
| COC(=O)[C@H]1c2c(/C=C/C(=O)O[C@H](Cc3ccc(O)c(O)c3)C(=O)O)ccc(O)c2O[C@@H]1c1ccc(O)c(O)c1 [Compound 20, methyl lithospermate] |  |  | nucleoprotein protein expression (western blot) [3]: dramatically reduce the nucleoprotein protein expression; virus population / nucleoprotein distribution in infected cells (fluorescence microscopy) [4]: influenza virus could be inhibited; effect of the compound alone on red blood cells [5]: no effect on red blood cells; IC50 [6]: 20.5 µM |
| COC(=O)[C@H]1Oc2ccc(/C=C/C(=O)O/C=C\c3ccc(O)c(O)c3)cc2O[C@H]1c1ccc(O)c(O)c1 [Compound 22, hyprhombins A] | 20.5 | > 50 |  |
| COC(=O)C[C@@H](OC(=O)/C=C/c1ccc(O)c(O)c1)c1ccc(O)c(O)c1 [Compound 23, 3-(3ʹʹʹ,4ʹʹʹ-dihydroxyphenyl)-acrylic acid 1-(3ʹʹ,4ʹʹ-dihydroxyphenyl)-2-methoxycarbonylethyl ester] | 27.7 | > 50 |  |
| COC(=O)[C@H](Cc1ccc(O)c(O)c1)OC(=O)/C=C/c1ccc(O)c2oc(-c3ccc(O)c(O)c3)cc12 [Compound 25, methyl salvianol acid C] | 30.1 | > 50 |  |
| [H]/N=C(/NC)NCCC[C@H](N)C(=O)O [L-NMMA, reference compound] |  | > 50 | IC50 ([2]; RAW264.7, 24 h): 21.8 µM |
| CCOC(=O)C1=C[C@@H](OC(CC)CC)[C@H](NC(C)=O)[C@@H](N)C1 [oseltamivir, reference compound] |  |  | IC50 [6]: 6.85 µM |
